# Test results: patent US20250041194A1, “COMPOSITION COMPRISING GALACTINOL AND USE THEREOF” (Clariant International Ltd, priority 2021, published 2025)
# How the values were obtained:
# [1] = system: normal human dermal fibroblasts (NHDF); experiment: Transcriptomic study, mRNA expression by RT-qPCR (Taqman); assay type: cell-based; details: 24 h treatment, vs untreated
# Procedure: The mRNA expression was quantified after 24 h of NHDF treatment with both Gal and C-Gal.
# mRNA extraction was realized according to the provider recommendations (Qiagen). Briefly, lysis buffer RLT-Plus was added on the cell pellet and the homogenous lysate was transferred in a column. The eluate was mixed with one volume 70° ethanol and was transferred in a pink <<RNeasy>> column. The column was washed with buffer. Elution was realized with RNase-free water and the RNA quantitation was done by D.O. 260 nm, 280 nm, 320 nm measurements (Biotek, Cytation3 & Take3 Plate) with “Nucleic Acid Quantification” software application. mRNA quality was checked using a fragment analyser (Advanced Analytical). Then, mRNA reverse transcription allowing the obtention of cDNA templates was performed on a thermal cycler (Bio-Rad). cDNA templates were used to perform the qPCR. For the transcriptomic study, it was used Biorad predesigned plates for ECM components, antioxidants genes, skin homeostasis. Then, the data generated allowed the automatic calculation using Bio-Rad CFX manager of mRNA expression fold change and p values in comparison to untreated condition.
# All data are statistically significant compared to control condition (p value <0.05).
# [2] = system: NHEK; experiment: Cell protection against UVB irradiation, bright-field cell morphology observation; assay type: cell-based, human; details: UVB 30 mJ/cm^2, preventive/curative/combined, observed after 24 hours, data not shown
# Procedure: (§1) In the following studies, the capabilities of Gal and C-Gal to protect skin cells (NHEK and NHDF) against various stress agents such as UV irradiations (UVB and UVA), or environmental factors (humidity and temperature) were assessed.
# Briefly, using a bright-field imaging microscope, it was studied the effect of the UVB irradiation on NHEK's morphology in various experimental conditions in presence or not of Gal and C-Gal: • “Preventive” condition: Gal or C-Gal was applied on NHEK during 24 hours before UVB irradiation (30 mJ/cm^2), and the morphology of the cells was observed after 24 hours, • “Curative” condition: Gal or C-Gal was applied after UVB irradiation, and the morphology of the cells was observed after 24 hours, • Combined condition “preventive and curative”: Gal or C-Gal was applied before and after UVB irradiation and the morphology of the cells was observed after 24 hours.
# [3] = system: NHDF; experiment: Cell protection against UVA irradiation, bright-field cell morphology observation; assay type: cell-based, human; details: UVA 10 J/cm^2, curative, observed after 24 hours, data not shown
# Procedure: as §1
# The same experiments as described above were repeated by using UVA irradiation on NHDF in the following condition: • “Curative” condition: Gal or C-Gal was applied after UVA irradiation (10 J/cm^2), and the morphology of the cells were observed after 24 hours.
# [4] = system: NHEK; experiment: Cell protection against environmental stress (heat, hydric), bright-field cell morphology observation; assay type: cell-based, human; details: heat stress 37 to 44° C. 30 min, hydric stress 90% to 45% relative humidity, or both, data not shown
# Procedure: as §1
# Finally, the effect of environmental stress on cell morphology was studied in NHEK treated with and without Gal or C-Gal (using a bright-field imaging microscope). The environmental stress applied were either a heat stress (increase in temperature from 37° C. to 44° C. during 30 min), or an hydric stress “modulation of relative humidity from 90% to 45%” or a combination of both stresses “heat plus hydric stresses”.
# [5] = system: HSP27; experiment: HSP27 protein expression by immunostaining; assay type: cell-based, human; details: NHDF, 24 h treatment, basal (non stressed) condition; FIG. 5
# Procedure: NHDF were treated with Gal or C-Gal for 24 h (treated cells). […] Pictures were realized with a Nikon microscope (Eclipse Ti2). The quantification of HSP27 was measured by image analysis of fluorescence intensity per cell using Image J software. The statistical analysis (Dunnett) was realized with Minitab software (*p<0.05 compared to control). Results were obtained by performing three independent assays.
compound,measurement,setting,value
"OC[C@H]1O[C@H](O[C@@H]2[C@@H](O)[C@H](O)[C@@H](O)[C@H](O)[C@@H]2O)[C@H](O)[C@@H](O)[C@H]1O [Gal, 3-O-α-D-galactopyranosyl-D-myo-inositol]","ECM genes and proteins expressions (COL5A1, ELN, SDC4, VCAN, LAMC2, LUM, ITGA1)","[1]; p value <0.05, FIG. 2",modulation
same,"antioxidant genes expression (NQO1, HMOX1, GPX1, G6PD)","[1]; p value <0.05, FIG. 3",modulated
same,growth factors gene expression (TGF Beta 1 and NGF),"[1]; p value <0.05, FIG. 4",upregulation
same,heat shock proteins gene expression (HSPA1A and HSP90AA),"[1]; p value <0.05, FIG. 4",upregulation
same,"mRNA expressions of PCNA, MKi67 and GADD45A (DNA repair and cell proliferation)","[1]; p value <0.05, FIG. 4",upregulation
same,cell morphology,[2],quite regular and expected cells morphology
same,cell number vs stress condition alone,[2],more cells are present
same,cell morphology,[3],quite regular and expected cells morphology
same,cell number vs stress condition alone,[3],more cells are present
same,cell morphology,[4],quite regular and expected cells morphology
same,HSP27 expression (fluorescence intensity per cell),[5],clear stimulation
